Values quoted from earlier work as cited in patent publication US5258406A, “Sulfonimidamides” (priority 1992, dated 1993).

Conditions: Johnson et al., J. Org. Chem. 44, 2055 (1979); cited from earlier work

CCCCNC(=O)NS(=N)(=O)c1ccc(C)cc1 (stereo not shown) [compound 16, N-butyl-N'-(p-toluenesulfonimidoyl)urea]
activity in an antidiabetic screen: inactive
